The values below come from US8765972B2 (priority 2009, dated 2014).

Like-named read-outs stand apart in the source and are kept apart here.

For one data set, the target named is PARP-3 (Homo sapiens (Human), UniProt Q9Y6F1). The note with it: read-out: PARP-3 (DC50); probe compound P1.
The test system of data set [1] is PAR formation in HeLa cells. As to the kind of experiment: cells. The note with it: Homo sapiens, read-out: PAR assay (IC50).
Procedure: Cellular PAR levels were measured by immunocytochemistry, and quantified using an ArrayScan vTi instrument (Cellomics Thermo Scientific). […] Test compounds were then added at the required concentration for 30'. […] After 3 washes in PBS, wells incubated in PBS (w/v) 5% FBS 0.05% Tween20 containing 2 μg/mL Cy2-conjugated Goat anti mouse secondary antibody (Amersham Pharmacia Biotech cat. […] At least 10 fields, corresponding to at least 900 cells, were read for each well. […] X is the logarithm of concentration. IC50 is the response; IC50 starts at Bottom and goes to Top with a sigmoid shape.
The target of another data set is PARP-2 (Homo sapiens (Human), UniProt Q9UGN5). The note with it: read-out: PARP-2 (DC50); probe compound P1.
PARP-2, sequence (Q9UGN5 whole entry): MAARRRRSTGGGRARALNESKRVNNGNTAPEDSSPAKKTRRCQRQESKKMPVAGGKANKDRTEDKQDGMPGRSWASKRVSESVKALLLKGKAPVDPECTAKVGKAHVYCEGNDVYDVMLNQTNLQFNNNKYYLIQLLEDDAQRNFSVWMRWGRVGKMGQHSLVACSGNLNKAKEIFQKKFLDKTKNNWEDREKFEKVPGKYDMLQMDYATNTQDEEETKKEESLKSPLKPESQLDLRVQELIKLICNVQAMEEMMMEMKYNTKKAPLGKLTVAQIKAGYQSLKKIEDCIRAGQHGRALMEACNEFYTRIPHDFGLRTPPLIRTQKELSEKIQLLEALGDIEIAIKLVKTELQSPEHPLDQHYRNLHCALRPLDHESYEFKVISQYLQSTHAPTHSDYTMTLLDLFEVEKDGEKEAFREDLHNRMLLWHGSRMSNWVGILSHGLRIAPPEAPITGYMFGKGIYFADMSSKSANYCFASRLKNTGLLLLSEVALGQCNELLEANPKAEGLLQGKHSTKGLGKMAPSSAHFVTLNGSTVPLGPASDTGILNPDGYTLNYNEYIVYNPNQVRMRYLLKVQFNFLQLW
The target of data set [2] is T1, PARP-1 (Homo sapiens (Human), UniProt P09874). The note with it: for DC50: read-out: PARP-1 (DC50); for Kd: read-out: PARP-1 (Kd).
T1 sequence (P09874 whole entry): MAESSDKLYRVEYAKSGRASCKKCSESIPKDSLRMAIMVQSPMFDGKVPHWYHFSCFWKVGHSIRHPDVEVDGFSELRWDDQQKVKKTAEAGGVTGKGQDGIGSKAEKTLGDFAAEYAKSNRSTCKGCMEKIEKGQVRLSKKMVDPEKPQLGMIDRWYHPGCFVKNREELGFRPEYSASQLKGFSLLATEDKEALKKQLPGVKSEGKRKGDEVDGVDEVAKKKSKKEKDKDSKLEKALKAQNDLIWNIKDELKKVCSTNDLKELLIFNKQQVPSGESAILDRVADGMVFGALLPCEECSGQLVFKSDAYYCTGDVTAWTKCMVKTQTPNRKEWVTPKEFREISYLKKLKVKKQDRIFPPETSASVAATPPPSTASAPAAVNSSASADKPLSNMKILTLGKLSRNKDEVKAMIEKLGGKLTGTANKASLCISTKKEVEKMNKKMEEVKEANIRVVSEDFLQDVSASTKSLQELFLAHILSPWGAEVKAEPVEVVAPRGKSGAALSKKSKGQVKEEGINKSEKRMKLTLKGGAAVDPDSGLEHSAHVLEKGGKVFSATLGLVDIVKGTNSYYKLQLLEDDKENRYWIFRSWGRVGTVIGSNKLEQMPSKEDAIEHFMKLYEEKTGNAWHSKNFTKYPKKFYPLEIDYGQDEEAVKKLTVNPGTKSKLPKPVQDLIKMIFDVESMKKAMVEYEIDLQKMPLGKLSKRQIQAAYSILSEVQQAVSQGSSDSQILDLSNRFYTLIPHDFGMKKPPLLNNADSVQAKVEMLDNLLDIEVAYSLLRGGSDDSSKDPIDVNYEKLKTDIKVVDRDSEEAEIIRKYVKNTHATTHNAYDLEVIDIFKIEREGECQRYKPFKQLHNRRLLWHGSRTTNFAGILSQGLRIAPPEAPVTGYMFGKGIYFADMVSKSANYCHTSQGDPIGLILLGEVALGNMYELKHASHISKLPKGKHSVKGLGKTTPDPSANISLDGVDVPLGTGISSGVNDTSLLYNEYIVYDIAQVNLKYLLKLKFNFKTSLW
Procedure: (§1) Affinity evaluation of the tested compounds and their selectivity with respect to the different PARP isoforms of interest was assessed in a displacement assay.
(§2) The polarization signal can be measured, e.g., by a plate reader such as the Saphire2 (Tecan). The displacement ability of the test compound is in correlation with the compound affinity for the NAD pocket of the enzyme.
(§3) In all of the experiments, the polarization signal was measured using a Saphire2 plate reader (Tecan). Data analysis was performed using Dynafit software. In particular, titration data were fitted to the following equilibria: Enzyme+probe<==>Complex Enzyme-probe, while displacement data were fitted to the following equilibria: Enzyme+probe<==>Complex Enzyme-probe, Enzyme+Compound<==>Complex Enzyme-Compound, whereby binding of probe and compound on the enzyme are mutually exclusive (pure competitive mechanism). Displacement data were also fitted using Excell spreadsheet (Microsoft Inc. Seattle, USA) to a four parameter logistic model (4PL), or Hill-Slope model to calculate DC50s where the DC50 value represents the compound concentration at which the polarization signal is diminished by 50% compared to untreated controls.
(§4) In agreement, affinity binding constants (KD) were determined by fitting with a pure competitive mechanism. KD values, are the average of three independent experiments.
The next data set is described as follows: in vivo. The note with it: male, Balb, Nu/Nu, mouse, 10 mg/kg; for Vd / clearance: iv; for AUC(0-t) / half-life: po.
The conditions of data set [3]: male, Balb, Nu/Nu, mouse, in vivo, 10 mg/kg.
Procedure: (§5) The compounds were formulated in 10% tween 80/dextrose for intravenous bolus administration while oral administrations were performed using the compounds formulated in 0.5% methylcellulose. […] Plasma samples were prepared by plasma proteins precipitation adding 200 μL of methanol to 10 μL of plasma in a 96 well plate. […] The supernatant was considered as final extract and injected onto the LC-MS-MS system (HPLC system: Hewlett Packard 1100 series using Atlantis HILIC Silica 50*2.1 mm 5.0 μm analytical column; MS instrument: Perkin Elmer SCIEX API 2000 and ionization performed with Turbo Ion Spray in positive ion mode). Lower limit of quantification is 5.0 ng/mL, upper limit of quantification is 10000 ng/mL. Analysis was performed using the Watson package (version 6.4.0.04) and Excel spreadsheet (Microsoft Inc. Seattle, USA). Non-compartmental method (linear trapezoidal rule and linear regression analysis of natural log-transformed plasma concentrations vs. time data) was used. After intravenous dosing, Co was set equal to Co 083 Absolute bioavailability (F) was calculated from the ratio of average oral to IV (intravenous) dose-normalized plasma AUC (area under curve) values.
The target in data set [4] is T1, PARP-1. In words: biochemical. Conditions: PARP-1 (Kd), probe compound P3.
Procedure: as §1, §2, §3, §4

PARP-3, sequence (Q9Y6F1 whole entry): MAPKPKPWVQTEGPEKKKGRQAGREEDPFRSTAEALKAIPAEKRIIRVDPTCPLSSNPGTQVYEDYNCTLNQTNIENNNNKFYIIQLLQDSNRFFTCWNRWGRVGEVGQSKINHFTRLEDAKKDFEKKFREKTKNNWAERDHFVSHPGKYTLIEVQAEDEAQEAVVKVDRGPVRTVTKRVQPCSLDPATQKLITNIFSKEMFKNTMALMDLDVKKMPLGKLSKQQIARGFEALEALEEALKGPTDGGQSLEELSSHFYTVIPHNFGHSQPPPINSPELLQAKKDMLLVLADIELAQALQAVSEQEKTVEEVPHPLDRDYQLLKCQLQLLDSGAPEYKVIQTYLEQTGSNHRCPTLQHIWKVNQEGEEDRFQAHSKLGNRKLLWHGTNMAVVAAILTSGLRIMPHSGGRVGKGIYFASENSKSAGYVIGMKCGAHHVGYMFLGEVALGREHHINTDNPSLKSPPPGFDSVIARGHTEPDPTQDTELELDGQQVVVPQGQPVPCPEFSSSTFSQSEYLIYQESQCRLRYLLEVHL
Procedure for PARP-2: as §1, §2, §3, §4
Procedure for PARP-3: as §1, §2, §3, §4
Procedure for in vivo: as §5

For the compound `C[C@@H]1c2cccc(C(N)=O)c2C(=O)N1C1CCN(C2CCCCC2)CC1` [Compound 5, (1R)-2-(1-Cyclohexylpiperidin-4-yl)-1-methyl-3-oxo-2,3-dihydro-1H-isoindole-4-carboxamide], the DC50 on PARP-3 was above 10000 nM; on PARP-2 it was above 10000 nM; on PARP-1 [2], 2110 nM. Further, in data set [1], the half-maximal inhibitory concentration (IC50) (usually the concentration that inhibits the measured activity by half) stood at 6300 nM. For the same compound, at PARP-1 [2], the Kd (usually the free concentration of one partner at which half of the binding sites on the other are occupied at equilibrium, for simple one-to-one binding) is 780 nM.

`CC1c2cccc(C(N)=O)c2C(=O)N1C1CCN(C2CCC(F)(F)CC2)CC1` (stereo not shown) [Compound 6, 2-[1-(4,4-Difluorocyclohexyl)piperidin-4-yl]-1-methyl-3-oxo-2,3-dihydro-1H-isoindole-4-carboxamide]: the DC50 is above 10000 nM on PARP-3, above 10000 nM at PARP-2 and below 250 nM on PARP-1 [2] (probe compound P1). In addition, the IC50 in data set [1] was 1300 nM. Also, the Kd on PARP-1 [2] (probe compound P3) turned out to be 30 nM.

For the compound `CC1c2cccc(C(N)=O)c2C(=O)N1C1CCN(Cc2ccc3[nH]ccc3c2)CC1` (stereo not shown) [Compound 7, 2-[1-(1H-indol-5-ylmethyl)piperidin-4-yl]-1-methyl-3-oxo-2,3-dihydro-1H-isoindole-4-carboxamide], the DC50 at PARP-3 was 520 nM; on PARP-2, above 10000 nM; on PARP-1 [2] (probe compound P1), below 250 nM. Further, in data set [1], the IC50 is 7000 nM. The Kd on PARP-1 [2] (probe compound P3) came to 30 nM.

For `CC1c2cccc(C(N)=O)c2C(=O)N1C1CCN(Cc2cn(C(C)C)c3ccccc23)CC1` (stereo not shown) [Compound 8, 1-Methyl-3-oxo-2-(1-{[1-(propan-2-yl)-1H-indol-3-yl]methyl}piperidin-4-yl)-2,3-dihydro-1H-isoindole-4-carboxamide], the DC50 at PARP-3 was 3100 nM; at PARP-2, above 10000 nM; on PARP-1 [2] (probe compound P1), 440 nM. Moreover, the Kd on PARP-1 [2] (probe compound P3) amounted to 250 nM.

`CC1c2cccc(C(N)=O)c2C(=O)N1C1CCN(Cc2ccccn2)CC1` (stereo not shown) [Compound 9, 1-Methyl-3-oxo-2-[1-(pyridin-2-ylmethyl)piperidin-4-yl]-2,3-dihydro-1H-isoindole-4-carboxamide]: the DC50 on PARP-3 is above 10000 nM; at PARP-2, above 10000 nM; at PARP-1 [2] (probe compound P1) it was 350 nM. Further, the IC50 in data set [1] was determined as 3000 nM. For the same compound, the Kd on PARP-1 [2] (probe compound P3) worked out at 170 nM.

Turning to `CC1c2cccc(C(N)=O)c2C(=O)N1C1CCN(Cc2ccco2)CC1` (stereo not shown) [Compound 15, 2-[1-(Furan-2-ylmethyl)piperidin-4-yl]-1-methyl-3-oxo-2,3-dihydro-1H-isoindole-4-carboxamide], the DC50 at PARP-3 was above 10000 nM; on PARP-2 it was above 10000 nM; at PARP-1 [2] (probe compound P1), below 250 nM. Also, the Kd at PARP-1 [2] (probe compound P3) was 40 nM.

Regarding `CC1c2cccc(C(N)=O)c2C(=O)N1C1CCN(C2CCC2)CC1` (stereo not shown) [Compound 18, 2-(1-Cyclobutylpiperidin-4-yl)-1-methyl-3-oxo-2,3-dihydro-1H-isoindole-4-carboxamide], at PARP-3, the DC50 was above 10000 nM. The IC50 in data set [1] stood at 2700 nM. Besides, in the data set “in vivo”, the Vd (in general, a proportionality between amount in the body and measured concentration, not a real space) worked out at 3.84 L/kg; the clearance – broadly, the volume of plasma or blood freed of the substance per unit of time – was 47 mL/min/kg; the AUC(0-t) (in general, exposure summed from dosing to a finite time, without extrapolation to infinity) worked out at 7.28 µM·h; the half-life (commonly the time needed for the level to fall by half in the phase considered) was 1.8 h. Also, in data set [3], the “C-max (oral)” value was found to be 3.9 µM. In addition, the DC50 on PARP-2 came out at 1820 nM. The DC50 at PARP-1 [2] (probe compound P1) is below 250 nM. The same compound had a Kd on PARP-1 [4] below 10 nM.

Consider `CC1c2cccc(C(N)=O)c2C(=O)N1C1CCN(Cc2ccc[nH]2)CC1` (stereo not shown) [Compound 19, 1-Methyl-3-oxo-2-[1-(1H-pyrrol-2-ylmethyl)piperidin-4-yl]-2,3-dihydro-1H-isoindole-4-carboxamide], for which the DC50 at PARP-3 was found to be 3040 nM. Besides, the IC50 in data set [1] is 2500 nM. In the data set “in vivo”, this compound had a Vd of 3.9 L/kg, a clearance of 88 mL/min/kg, an AUC(0-t) of 4.28 µM·h and a half-life of 0.8 h. In addition, the “C-max (oral)” value in data set [3] stood at 2.85 µM. Moreover, the DC50 at PARP-2 was above 10000 nM. On PARP-1 [2] (probe compound P1), the DC50 is below 250 nM. Besides, the Kd on PARP-1 [2] (probe compound P3) is 20 nM.

With `CC1c2cccc(C(N)=O)c2C(=O)N1C1CCN(Cc2cccs2)CC1` (stereo not shown) [Compound 20, 1-Methyl-3-oxo-2-[1-(thiophen-2-ylmethyl)piperidin-4-yl]-2,3-dihydro-1H-isoindole-4-carboxamide], the DC50 on PARP-3 is 3860 nM; on PARP-2, above 10000 nM; on PARP-1 [2] (probe compound P1), below 250 nM. This compound displayed a Kd at PARP-1 [4] below 10 nM.

As for `CC1c2cccc(C(N)=O)c2C(=O)N1C1CCN(CC2CC=CCC2)CC1` (stereo not shown) [Compound 22, 2-[1-(Cyclohex-3-en-1-ylmethyl)piperidin-4-yl]-1-methyl-3-oxo-2,3-dihydro-1H-isoindole-4-carboxamide], the DC50 at PARP-3 was above 10000 nM; at PARP-2 it was above 10000 nM; on PARP-1 [2] (probe compound P1), below 250 nM. For the same compound, at PARP-1 [2] (probe compound P3), the Kd was determined as 40 nM.

With `CC1c2cccc(C(N)=O)c2C(=O)N1C1CCN(Cc2ncc[nH]2)CC1` (stereo not shown) [Compound 26, 2-[1-(1H-Imidazol-2-ylmethyl)piperidin-4-yl]-1-methyl-3-oxo-2,3-dihydro-1H-isoindole-4-carboxamide], the values for the DC50 at PARP-3, on PARP-2 and at PARP-1 [2] (probe compound P1) were 2830 nM, 6880 nM and below 250 nM, respectively. The Kd on PARP-1 [2] (probe compound P3) worked out at 70 nM.

In the case of `CC1c2cccc(C(N)=O)c2C(=O)N1c1ccc(N2CCOCC2)cc1` (stereo not shown) [Compound 35, 1-Methyl-2-[4-(morpholin-4-yl)phenyl]-3-oxo-2,3-dihydro-1H-isoindole-4-carboxamide], the DC50 is above 10000 nM at PARP-3, above 10000 nM at PARP-2 and below 250 nM on PARP-1 [2] (probe compound P1). Besides, the IC50 in data set [1] was determined as 4900 nM. Also, the Kd at PARP-1 [2] (probe compound P3) is 40 nM.

For the compound `CC1c2cccc(C(N)=O)c2C(=O)N1c1ccc(N2CCCCC2)cc1` (stereo not shown) [Compound 36, 1-Methyl-3-oxo-2-[4-(piperidin-1-yl)phenyl]-2,3-dihydro-1H-isoindole-4-carboxamide], the DC50 at PARP-3 is above 10000 nM; at PARP-2 it was above 10000 nM; on PARP-1 [2] (probe compound P1) it was below 250 nM. Moreover, the IC50 in data set [1] was 9000 nM. Further, on PARP-1 [2] (probe compound P3), the Kd amounted to 80 nM.

Take `CC1c2cccc(C(N)=O)c2C(=O)N1c1ccc(CN2CCCCC2)cc1` (stereo not shown) [Compound 38, 1-Methyl-3-oxo-2-[4-(piperidin-1-ylmethyl)phenyl]-2,3-dihydro-1H-isoindole-4-carboxamide]: the DC50 was above 10000 nM at PARP-3, above 10000 nM at PARP-2 and 1110 nM on PARP-1 [2] (probe compound P1). Besides, in data set [1], the IC50 was found to be 5300 nM.

As for `CC1c2cc(F)cc(C(N)=O)c2C(=O)N1C1CCN(C2CCC(F)(F)CC2)CC1` (stereo not shown) [Compound 126, 2-[1-(4,4-Difluorocyclohexyl)piperidin-4-yl]-6-fluoro-1-methyl-3-oxo-2,3-dihydro-1H-isoindole-4-carboxamide], the figures for the DC50 at PARP-3, on PARP-2 and at PARP-1 [2] (probe compound P1) were above 10000 nM, above 10000 nM and below 250 nM, respectively. In data set [1], the IC50 turned out to be 270 nM.

Regarding `CC1c2cc(F)cc(C(N)=O)c2C(=O)N1C1CCN(C2CCCCC2)CC1` (stereo not shown) [Compound 127, 2-(1-Cyclohexylpiperidin-4-yl)-6-fluoro-1-methyl-3-oxo-2,3-dihydro-1H-isoindole-4-carboxamide], the DC50 on PARP-3 is above 10000 nM; on PARP-2, above 10000 nM; at PARP-1 [2] (probe compound P1), 410 nM. In addition, in data set [1], the IC50 amounted to 640 nM. Further, the Kd on PARP-1 [2] (probe compound P3) was 60 nM.

For the compound `CC1(C)c2cc(F)cc(C(N)=O)c2C(=O)N1C1CCN(C2CCCCC2)CC1` [Compound 128, 2-(1-Cyclohexylpiperidin-4-yl)-6-fluoro-1,1-dimethyl-3-oxo-2,3-dihydro-1H-isoindole-4-carboxamide], the DC50 is above 10000 nM on PARP-3, above 10000 nM on PARP-2 and 5660 nM at PARP-1 [2] (probe compound P1). For the same compound, the IC50 in data set [1] amounted to 4000 nM. The Kd on PARP-1 [2] (probe compound P3) stood at 870 nM.
